From PubChem BioAssay AID1261 (University of Pittsburgh Molecular Library Screening Center, 2008) come the findings set out here.

Results filed as inconclusive are left out. Activity calls are given as the source filed them. How the calls were made is not given here.

The first assay has as its target Tyrosine-protein phosphatase YopH [Yersinia enterocolitica]. The assay can be described thus: potency against Yersinia YopH phosphatase – biochemical, 10-point dose range, dose response (AID 1261). To be noted: YopH phosphatase enzymatic assay, IC50, 3 runs.
On to `COc1ccc(NC2=C(NCCO)C(=O)c3ccccc3C2=O)cc1`, for which the IC50 is > 50 µM (inactive). Turning to `CCOC(=O)C1=C(C)NC2(O)c3ccccc3C(=O)C12O` (stereo not given), the IC50 was > 50 µM (inactive).

As to `CSc1nsc(/C=C/Nc2ccc(Cl)cc2)c1C#N`, the IC50 is > 50 µM (inactive). Regarding `CCN(CC)c1ccc(/C=N/Nc2ccccc2)c(O)c1`, the IC50 was > 50 µM (inactive). As to `CCCCOC(=O)C1=C(C)NC2(O)c3ccccc3C(=O)C12O` (stereo not given), the IC50 was > 50 µM (inactive). As for `CCN(CC)c1ccc(/C=N/Nc2ccc(C)cc2)c(O)c1`, the IC50 was > 50 µM (inactive). Turning to `CCN(CC)c1ccc(/C=N/Nc2cccc(C)c2)c(O)c1`, the IC50 is > 50 µM (inactive).

In the case of `CCOC(=O)/C(N=Nc1ccc(F)cc1)=C(/O)c1ccc([N+](=O)[O-])cc1`, the IC50 is > 50 µM (inactive). Regarding `CC1=C(C)C(=O)C(CCCCC#CCCCC#CCO)=C(C)C1=O`, the IC50 was > 50 µM (inactive). As for `CC1=C(C(=O)OCC(C)C)C2(O)C(=O)c3ccccc3C2(O)N1` (stereo not given), the IC50 is > 50 µM (inactive).

Still in this assay, the particulars now being: YopH phosphatase enzymatic assay, IC50, 3 runs; inhibition; at 50 µM; stronger effect = higher value.
As to `CCn1c(-c2cc(OC)c(OC)c(OC)c2)n[nH]c1=S`, the inhibition was -24%.

As to `Cc1c(Br)cc(C(=O)OC2CCN(C)CC2)c(C)c1C`, the inhibition amounted to 0.211%. Still for that read-out and setting: with `CCc1ccc(S(=O)(=O)/N=C2/C=C(Sc3ncn[nH]3)C(=O)c3ccccc32)cc1` the figure was 17.2%; with `O=C(OCC1O[C@@H](OC(=O)c2cc(O)c(O)c(O)c2)[C@@H](OC(=O)c2cc(O)c(O)c(O)c2)[C@@H](OC(=O)c2cc(O)c(O)c(O)c2)[C@@H]1OC(=O)c1cc(O)c(O)c(O)c1)c1cc(O)c(O)c(O)c1` (stereo not given in full), 72.5%.

With `Cc1csc(N2CCc3ccccc32)n1`, the inhibition is -9.56%.

For `S=c1[nH]nc(-c2ccccc2)n1/N=C/C=C/c1ccco1`, the inhibition is 3.47%. On to `COC(=O)C1C(C(C)C)N(c2ccccc2)OC1(C)O` (stereo not given), for which the inhibition was -0.943%. Same read-out and setting: as for `O=C(NCc1ccccc1)C1CCCN1S(=O)(=O)c1cccc2cccnc12` (stereo not given), the figure is -2.68%. On the same count and under the same terms, with `Cc1ccc(C(c2sc3nc(C)nn3c2O)N2CCOCC2)cc1` (stereo not given) the figure was -10.3%. As for `CN(C(=O)COc1ccc(C(C)(C)C)cc1)C1CCS(=O)(=O)C1` (stereo not given), the inhibition is -19.1%.

In the case of `CC1=CC(=C(C#N)c2nc3ccccc3s2)C=C(C)N1c1ccc(F)cc1F`, the inhibition was 1.55%.

Turning to `O=C(/C=C/c1ccc(O)cc1)c1ccc(NC2=C(N3CCCCC3)C(=O)c3ccccc3C2=O)cc1`, the inhibition turned out to be 18.9%. As for `O=c1cc(CN2CCN(c3ccccc3F)CC2)c2cc(O)c(-c3ccccc3)cc2o1`, the inhibition came out at 4.58%. As to `Clc1ccc(C2=CSC3=Nc4cccc5cccc(c45)N23)cc1`, the inhibition is 13.3%. As to `CCO/C=C1\C(=O)N(c2ccccc2)C(=O)c2ccccc21`, the inhibition is 39.1%.

`Cc1ccc(S(=O)(=O)N2CCCC(C(=O)NCc3ccco3)C2)cc1Cl` (stereo not given): the inhibition turned out to be 12.9%. As for `Oc1ccc(C=Nc2ccc3ncccc3c2)c(O)c1`, the inhibition was -3.62%. Still for that read-out and setting: as for `COc1ccc(NC2=C(NCCO)C(=O)c3ccccc3C2=O)cc1`, the figure is 20.2%; as for `CCc1cc[n+](C2=C([O-])c3ccccc3C(=O)/C2=N\S(=O)(=O)c2cccs2)cc1`, 2.75%; as for `COc1ccc(CN2C(=O)c3ccccc3C(/C=N\OCc3ccc(F)cc3)C2=O)cc1` (stereo not given), 3.35%.

`CCOC(=O)C1=C(C)NC2(O)c3ccccc3C(=O)C12O` (stereo not given): the inhibition stood at 40%. With `CSc1nsc(/C=C/Nc2ccc(Cl)cc2)c1C#N`, the inhibition is -6.81%.

Take `O=C(/C=C/c1ccc([N+](=O)[O-])cc1)OCC(=O)N1c2ccccc2Sc2ccccc21`: the inhibition is -1.56%. For the compound `COC(=O)c1ccc(Cl)c(NC(=O)CN2CCN(Cc3ccccc3)CC2)c1`, the inhibition is -9.15%. As to `c1ccc(-c2csc3ncnc(NCCCN4CCOCC4)c23)cc1`, the inhibition was -1.85%.

Turning to `CCOC(=O)c1nc(C)n(-c2ccc(Cl)cc2)n1`, the inhibition was -5.92%. For `CCN(CC)c1ccc(/C=N/Nc2ccccc2)c(O)c1`, the inhibition is -13.5%.

With `COCCCNC(=O)CCCC(=O)NCCCOC`, the inhibition is -17.3%. On the same count and under the same terms, as for `CCOC(=O)c1oc2ccc(Br)cc2c1CSc1nnc(C)s1`, the figure is -12.1%; as for `COc1ccc(NC(=O)/C(=C/c2cccnc2)NC(=O)c2cccs2)cc1`, -16.6%; as for `Cc1oc2ccccc2c1-c1cn2c(n1)SCC2`, -2.41%. Turning to `[O-]/[N+](=C\c1ccc(F)cc1)c1ccccc1`, the inhibition worked out at 2.44%.

For `Cc1cccc(OCCCCc2c(C)n[nH]c2C)c1`, the inhibition is -10.5%.

Take `O=C(COC(=O)c1ccc([N+](=O)[O-])s1)Nc1ccccc1`: the inhibition was -23.9%. Turning to `Cc1ccc(C(C[N+](=O)[O-])c2c(C)[nH]n(-c3ccccc3)c2=O)cc1` (stereo not given), the inhibition is -20.8%. For `O=C1CC(N(O)c2ccccc2)C(=O)N1Cc1ccccc1` (stereo not given), the inhibition was -4.47%.

For `CCCCOC(=O)C1=C(C)NC2(O)c3ccccc3C(=O)C12O` (stereo not given), the inhibition was determined as 36.9%. In the case of `CCOC(=O)c1c(C)oc2c1c(C=NCc1ccccn1)c(O)c1ccccc12`, the inhibition was found to be 2.53%. `CCN(CC)c1ccc(/C=N/Nc2ccc(C)cc2)c(O)c1`: the inhibition came out at 9.55%. Same read-out and setting: as for `Cc1ccccc1/[N+]([O-])=C/c1ccncc1`, the figure is 15.6%; as for `CCN(CC)c1ccc(NC(=O)c2cccc(OC)c2)c(C)c1`, -4.28%; as for `CC1(C)COC(/C=C/c2ccc([N+](=O)[O-])cc2)=N1`, -8.03%. In the case of `COc1ccccc1NC(=O)N1CCC(C(=O)c2ccc(F)cc2)CC1`, the inhibition was -5.37%. Take `CCN(CC)c1ccc(/C=N/Nc2cccc(C)c2)c(O)c1`: the inhibition was 9.95%.

With `Nc1c(NCc2ccccc2F)c(=O)[nH]c(=O)n1Cc1ccccc1`, the inhibition was found to be 33.1%. As for `CCOC(=O)/C(N=Nc1ccc(F)cc1)=C(/O)c1ccc([N+](=O)[O-])cc1`, the inhibition is -5.66%. Still for that read-out and setting: as for `CCOc1ccc(C(=S)N2CCOCC2)cc1OC`, the figure is -1.37%.

For the compound `Cc1ccc(NC2=C(N3CCOCC3)C(=O)c3ccccc3C2=O)cc1`, the inhibition is 18%. `O=C(O)c1ccccc1SCC(=O)N1c2ccccc2Sc2ccccc21`: the inhibition was -57.4%.

As for `CCO/C=C1/C(=O)N(Cc2ccccc2)C(=O)c2ccccc21`, the inhibition was determined as 49.7%.

Turning to `O=C(NC(C(=O)O)c1ccccc1)c1ccc(S(=O)(=O)N2CCOCC2)cc1` (stereo not given), the inhibition was -10.8%.

`COC(=O)N(NC(=O)C(O)(CCC(C)C)CCC(C)C)c1ccccc1`: the inhibition came out at 4.94%. For the compound `CCN(CC)c1ccc(C=Nc2ccccc2)c(O)c1`, the inhibition is 17.6%. On to `O=C(Nc1nnc(C(F)(F)F)s1)c1ccc(N2C(=O)C3C4C=CC(C4)C3C2=O)cc1` (stereo not given), for which the inhibition was -8.43%.

With `O=C(NC(Cc1c[nH]c2ccccc12)c1nnc2n1CCCCC2)c1cccs1` (stereo not given), the inhibition came to 0.82%. Still for that read-out and setting: as for `CN1C(=O)C(Cc2cccc3ccccc23)C(=O)N(C)C1=O`, the figure is 20.5%; as for `CN(C1=C(NC(=O)c2ccccc2)C(=O)c2ccccc2C1=O)C1CCS(=O)(=O)C1` (stereo not given), 27%. For the compound `CC1=C(C)C(=O)C(CCCCC#CCCCC#CCO)=C(C)C1=O`, the inhibition is 0.676%. For the compound `C#CCn1cc(C=C2C(=O)c3ccccc3C2=O)c2ccccc21`, the inhibition was 11.1%.

In the case of `CCN(CC)CCCNC(=O)Cc1c(C(=O)O)n(C)c2ccccc12`, the inhibition was -8.3%. Consider `Cc1ccc(N2C(=O)[C@@H]3[C@H](C2=O)C2c4ccccc4C=CN2[C@@H]3C(=O)c2ccco2)cc1` (stereo not given in full), for which the inhibition is -1.17%.

As for `CC(=O)OCCCNc1cc(SCc2ccco2)c2nonc2c1[N+](=O)[O-]`, the inhibition was -2.61%. On to `O=C(CSc1nnc(-c2ccccc2)o1)n1c2c(c3ccccc31)CCCC2`, for which the inhibition is -10.9%. In the case of `O=C(CSc1ncn[nH]1)c1ccc2c(c1)OCO2`, the inhibition was -17.6%.

As for `C=CCc1cccc2cc(C(=O)Nc3ccc(S(=O)(=O)Nc4nnc(CC)s4)cc3)c(=O)oc12`, the inhibition was 23.8%. Take `CC(C)N(C(=O)COc1ccc(Br)cc1Cl)C(C)C`: the inhibition was -12.6%. Turning to `O=[N+]([O-])c1ccc(-c2csc3[n+]2CCS3)cc1`, the inhibition was found to be 20.8%. For `CC(C)(C)c1cc(OC(=O)c2ccncc2)ccc1O`, the inhibition amounted to 30.2%. The same measure, in the same setting: as for `CCCNc1nc2c(c(=O)[nH]c(=O)n2C)n1Cc1ccc(F)cc1`, the figure is -11.6%; as for `CCN1CCC2(CC1)N=C(c1ccc(F)cc1)C(=S)N2C(=O)c1ccc(C)cc1`, 28.6%; as for `O=C(O[C@@H]1OC2COC(=O)c3cc(O)c(O)c(O)c3-c3c(cc(O)c(O)c3O)C(=O)O[C@@H]([C@H]1O)[C@@H]2O)c1cc(O)c(O)c(O)c1`, -0.367%. For `CC1=C(C(=O)OCC(C)C)C2(O)C(=O)c3ccccc3C2(O)N1` (stereo not given), the inhibition came to 31.7%. As for `CCC(=O)N1Cc2ccccc2-c2ccccc2C1=O`, the inhibition is -4.86%. For `Cc1nc2ccccc2c(=O)n1NC(=O)c1c(O)c2c(n(CC(C)C)c1=O)CCCC2`, the inhibition is -4.05%. Regarding `COc1ccc2c(c1)c(=O)cc(C)n2CC(=O)NCc1ccco1`, the inhibition was -3.64%.

What is called IC50 is the point on the concentration scale where inhibition reaches its midpoint. For orientation: inhibition means the change of the read-out against control, counted positive when it falls.
